Several values for one entry are separate records, joined by “and”; a condition that tells them apart may be missing. Equal values may be shown once. Read-outs that look alike come from different tables or passages of the source.
What was measured:
PYR1^M (H60P, N90S) = target: T1, PYR1^M (H60P, N90S) (Arabidopsis thaliana, UniProt O49686, H60P/N90S); assay: ELISA-like plate assay, immobilized PYR1^M, biotinylated ΔN-HAB1^T+, streptavidin-HRP; type: binding; conditions: for ELISA signal generation, positive control (source data): PYR1^M tested with ABA, replicates, listed as + CNTRL
T1 construct: made in house; host or cells: E. coli (pET derivatives)
T1 sequence (O49686 1-191 H60P/N90S): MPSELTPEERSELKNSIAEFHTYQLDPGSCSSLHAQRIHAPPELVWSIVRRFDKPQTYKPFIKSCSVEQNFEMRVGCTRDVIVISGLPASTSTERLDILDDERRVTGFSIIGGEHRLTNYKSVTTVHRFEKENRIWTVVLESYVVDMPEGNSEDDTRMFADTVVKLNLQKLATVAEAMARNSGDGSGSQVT
T1 sequence (Q9CAJ0 179-511 C186S/R199A/D204A/S209V/H248S/F260E/C274S/D287K/S292N/S342A/M358I/N377A/R422E/N439S/M483K partner): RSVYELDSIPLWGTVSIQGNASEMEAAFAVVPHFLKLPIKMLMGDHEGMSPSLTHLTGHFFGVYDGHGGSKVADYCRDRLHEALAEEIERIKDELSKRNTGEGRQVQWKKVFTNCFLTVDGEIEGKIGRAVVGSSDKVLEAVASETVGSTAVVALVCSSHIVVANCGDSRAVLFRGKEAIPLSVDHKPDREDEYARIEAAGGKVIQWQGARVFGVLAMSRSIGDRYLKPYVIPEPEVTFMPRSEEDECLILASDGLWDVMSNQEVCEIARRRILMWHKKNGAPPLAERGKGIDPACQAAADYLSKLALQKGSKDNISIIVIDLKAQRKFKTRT

PYR1^DIAZI [1] = target: T2, PYR1^DIAZI (Arabidopsis thaliana, UniProt O49686, A160V/E8G/F108Y/F159G/L87M/M158V/V81Y); assay: Split NanoLuc luciferase complementation in yeast, NLuc^N-PYR1^DIAZI/NLuc^C-HAB1; type: cell-based; design: >PYR1-DIAZI; expressed in transfected cells; host or cells: Saccharomyces cerevisiae BY4742; conditions: Figure 4f(top), 3 replicates
T2 sequence (Q9CAJ0 179-511): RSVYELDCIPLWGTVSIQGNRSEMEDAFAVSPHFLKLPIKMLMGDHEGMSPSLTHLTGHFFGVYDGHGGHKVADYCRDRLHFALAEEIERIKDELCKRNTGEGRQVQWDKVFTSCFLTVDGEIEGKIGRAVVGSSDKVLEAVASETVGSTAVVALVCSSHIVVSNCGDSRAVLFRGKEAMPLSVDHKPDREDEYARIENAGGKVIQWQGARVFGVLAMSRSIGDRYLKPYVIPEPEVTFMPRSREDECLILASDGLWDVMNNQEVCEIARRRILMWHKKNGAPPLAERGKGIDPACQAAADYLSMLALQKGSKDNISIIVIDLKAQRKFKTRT
T2 sequence (O49686 other isoform, or with tags, fused parts or gaps E8G/V81Y/L87M/F108Y/M158V/F159G/A160V): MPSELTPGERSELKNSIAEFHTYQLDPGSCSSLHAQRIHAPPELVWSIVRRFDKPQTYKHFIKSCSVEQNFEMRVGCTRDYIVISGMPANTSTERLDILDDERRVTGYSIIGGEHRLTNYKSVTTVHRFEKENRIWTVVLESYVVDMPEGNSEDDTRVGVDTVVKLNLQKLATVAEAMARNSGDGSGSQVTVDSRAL

PYR1^DIAZI [2] = target: T2, PYR1^DIAZI; assay: Yeast transcriptional activation circuit Z4-PYR1/VP64-ΔN-HAB1, GFP reporter, PYR1^DIAZI; conditions: read-out: EC50, yeast transcription circuit; PYR1^DIAZI, off-target ligand
PYR1^PIRI / HAB1 = target: T3, PYR1^PIRI / HAB1 (Arabidopsis thaliana, UniProt O49686, A160T/E130G/F159T/K59R/N119S/S122Q/S92M/V174A); assay: Ligand/receptor-mediated PP2C (HAB1 phosphatase) inhibition, PYR1^PIRI; type: biochemical
T3 construct: made in house
T3 sequence (O49686 with tags, fused parts or gaps K59R/S92M/N119S/S122Q/E130G/F159T/A160T/V174A): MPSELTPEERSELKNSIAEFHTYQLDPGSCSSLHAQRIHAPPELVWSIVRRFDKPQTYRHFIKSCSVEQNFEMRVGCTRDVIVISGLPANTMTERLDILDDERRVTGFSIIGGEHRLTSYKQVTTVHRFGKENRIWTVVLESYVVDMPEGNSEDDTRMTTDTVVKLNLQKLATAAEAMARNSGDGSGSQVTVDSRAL

PYR1^PIRI = target: T4, PYR1^PIRI (Arabidopsis thaliana, UniProt O49686, A160T/E130G/F159T/K59R/N119S/S122Q/S92M/V174A); assay: Split NanoLuc luciferase complementation in yeast, NLuc^N-PYR1^PIRI/NLuc^C-HAB1; type: cell-based
T4 construct: >PYR1-PIRI; expressed in transfected cells; host or cells: Saccharomyces cerevisiae BY4742
T4 sequence (Q9CAJ0 179-511, one chain of several, further chain): as the sequence (Q9CAJ0 179-511) above

[3] = target: NLuc^N-PYR1^PIRI (Arabidopsis) (UniProt O49686)
[4] = target: NLuc^N-PYR1^DIAZI (Arabidopsis) (UniProt O49686)
[5] = target: NLuc^N-PYR1^WIN (Arabidopsis) (UniProt O49686)
[6] = target: NLuc^N-PYR1^4F (Arabidopsis) (UniProt O49686)
ABA-PYR1M complex = target: T5, ABA-PYR1M complex (Arabidopsis thaliana, UniProt O49686, H60P/N90S); assay: Yeast surface display titration of HAB1 variants against PYR1^M in the presence of 500 nM ABA; type: binding; conditions: HAB1 variant for the ABA-PYR1M complex, 95% CI in brackets, read-out: KD2
T5 construct: c-myc (display detection tag); expressed in transfected cells; host or cells: yeast (surface display of PYR1^M); the HAB1 variants were recombinant and purified
T5 sequence (O49686 1-191 H60P/N90S): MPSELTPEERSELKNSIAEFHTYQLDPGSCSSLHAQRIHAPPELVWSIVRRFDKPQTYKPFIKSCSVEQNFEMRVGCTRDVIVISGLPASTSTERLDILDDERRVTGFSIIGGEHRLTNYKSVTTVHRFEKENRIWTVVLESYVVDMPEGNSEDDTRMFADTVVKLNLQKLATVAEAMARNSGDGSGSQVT
Description: For crystallographic structures, PYL2 and ΔN-HAB1^T+ were expressed in E. coli and purified as described previously. Assays for phosphatase activity and apparent Tm, measured via thermal challenge using yeast surface display, were performed essentially as previously described.
(a) Assessment of stabilized, inactivated 6xHis -MBP-ΔN -HAB1 variants. Experiments were repeated on two separat e days using independently generated batches of protein. Error bars indicate 1 SD of 3 measure ments . Sets of mutations f or each variant are noted in Supporting File 1.
MBP-ΔN -HAB1 variants using p-NPP.
HAB1 variants using YSD of PYR1M, in the presence of 500 nM ABA and 20 nM 6xHis -MBP-ΔN -HAB1 variant. The […]
here ref ers to streptavidin -phycoerythrin.
(b) Gating strategy for analysis of data shown in part (a). The f luorescence (a.u.) reported in part (a) is the gated ΔN - HAB 1T+ binding as measured by streptavidin -phycoeryt hrin (SAPE).

With `CC1=CC(=O)CC(C)(C)[C@@]1(O)/C=C/C(C)=C\C(=O)O` [ABA, abscisic acid] as the molecule, how does the “ELISA signal generation, positive control (source data)” value (PYR1^M (H60P, N90S); 2 nM) read?
The value was 2.266 and 2.046 and 2.24.

And the “ELISA signal generation, positive control (source data)” value (PYR1^M (H60P, N90S); 2 μM)?
The value was 3.553 and 3.555 and 3.41.

And the “Amax [AU 450 nm]” value (PYR1^M (H60P, N90S); global fit, PYR1M/ABA/ΔN-HAB1T+ system, Biorep 1-3)?
The value was 2 AU 450 nm and 2.8 AU 450 nm.

What about the Kd (PYR1^M (H60P, N90S); global fit, PYR1M/ABA/ΔN-HAB1T+ system, Biorep 1-3, read-out: KD1) of the same molecule?
Its Kd is 820 nM and 780 nM and 2090 nM.

`CCOP(=S)(OCC)SCn1nnc2ccccc2c1=O` [Azinphos-ethyl, azinphos-ethyl] was tested. Which “Sensor signal (Figure 4f top), replicate values” (“Sensor signal (Figure 4f top)” below) (PYR1^DIAZI [1]; [Agonist] 1e-5 nM) did it give?
The value was 19.1784 and 9.602 and 15.5607.

And the “Sensor signal (Figure 4f top)” value (PYR1^DIAZI [1]; [Agonist] 0.5 nM)?
Its value is 28.6964 and 14.557 and 20.4786.

What about the “Sensor signal (Figure 4f top)” value (PYR1^DIAZI [1]; [Agonist] 1 nM) of the same molecule?
Its value is 22.2741 and 20.8671 and 16.0353.

What about the “Sensor signal (Figure 4f top)” value (PYR1^DIAZI [1]; [Agonist] 10 nM) of the same molecule?
Its value is 14.152 and 32.187 and 17.3809.

What about the “Sensor signal (Figure 4f top)” value (PYR1^DIAZI [1]; [Agonist] 100 nM) of the same molecule?
Its value is 20.787 and 38.118 and 25.3718.

What about the “Sensor signal (Figure 4f top)” value (PYR1^DIAZI [1]; [Agonist] 1000 nM) of the same molecule?
The value was 52.3582 and 54.3696 and 50.5941.

And the “Sensor signal (Figure 4f top)” value (PYR1^DIAZI [1]; [Agonist] 10000 nM)?
The value was 95.7293 and 70.2485 and 89.5341.

What about the “Sensor signal (Figure 4f top)” value (PYR1^DIAZI [1]; [Agonist] 100000 nM) of the same molecule?
The value was 109.007 and 68.7025 and 93.3077.

And the EC50 (PYR1^DIAZI [2])?
The EC50 was 1100 nM.

With `CCN(CC)c1nc(C)cc(OP(=S)(OC)OC)n1` [Pirimiphos-methyl, pirimiphos-methyl] as the molecule, how does the EC50 (PYR1^PIRI / HAB1) read?
The EC50 was 58 nM.

What about the “ligand concentrations required for activation of PYR1^PIRI above background” value (PYR1^PIRI / HAB1; HAB1 inhibition and Y2H assays) of the same molecule?
Its value is “low-nanomolar concentrations”.

And the EC50 (PYR1^PIRI)?
Its EC50 is 19 nM.

What does the source list for “NLuc^C-ΔN-HAB1 (from UniProt Q9CAJ0 179-511) (enzyme)”?
receptor-mediated inhibition of HAB1 phosphatase activity in vitro; EC50 of the ligand pirimiphos-methyl [3]: 58 nM; receptor-mediated inhibition of HAB1 phosphatase activity in vitro; EC50 of the ligand diazinon [4]: 36 nM; in vitro inhibition of ΔN-HAB1 phosphatase activity by recombinant 6×His-PYR1^WIN (50 nM receptor, 25 nM ΔN-HAB1, 4-methylumbelliferyl phosphate); EC50 of the ligand WIN 55,212-2 [5]: 72 nM; in vitro inhibition of ΔN-HAB1 phosphatase activity by recombinant 6×His-PYR1^4F (25 nM receptor, 25 nM ΔN-HAB1, 4-methylumbelliferyl phosphate); EC50 of the ligand 4F-MDMB-BUTINACA [6]: 102 nM

B1: T+ (723): stabilized, catalytically inactive ΔN-HAB1 derivative with 15 mutations (pJS723) (protein)
chain: RSVYELDSIPLWGTVSIQGNASEMEAAFAVVPHFLKLPIKMLMGDHEGMSPSLTHLTGHFFGVYDGHGGSKVADYCRDRLHEALAEEIERIKDELSKRNTGEGRQVQWKKVFTNCFLTVDGEIEGKIGRAVVGSSDKVLEAVASETVGSTAVVALVCSSHIVVANCGDSRAVLFRGKEAIPLSVDHKPDREDEYARIEAAGGKVIQWQGARVFGVLAMSRSIGDRYLKPYVIPEPEVTFMPRSEEDECLILASDGLWDVMSNQEVCEIARRRILMWHKKNGAPPLAERGKGIDPACQAAADYLSKLALQKGSKDNISIIVIDLKAQRKFKTRT
modifications: biotinylated in the ELISA-like assays
Which Kd (ABA-PYR1M complex; Biorep 1) does the source give for B1 here?
Its Kd is 2.13 nM.

And the Kd (ABA-PYR1M complex; Biorep 2)?
The Kd was 4.76 nM.
